Laboratory results published in ChEMBL document CHEMBL1140579, “Synthesis of andrographolide derivatives and their TNF-alpha and IL-6 expression inhibitory activities” (2007).

What was measured:
Conditions in all cases: J774.A1, 24 h
J774.A1 [1] = assay: Inhibition of TNFalpha secretion in mouse J774A.1 cells at 20 uM after 24 hrs by ELISA; values are per cent of control
J774.A1 [2] = assay: Inhibition of LPS-induced TNFalpha secretion in mouse J774A.1 cells at 20 uM after 24 hrs by ELISA; values are per cent of control
J774.A1 [3] = assay: IL6 secretion in mouse J774A.1 cells at 20 uM after 24 hrs by ELISA
J774.A1 [4] = assay: Inhibition of LPS-induced IL6 secretion in mouse J774A.1 cells at 20 uM after 24 hrs by ELISA; values are per cent of control

| Compound | level, % of control at 20 µM (J774.A1 [1]) [%] | level, % of control at 20 µM (J774.A1 [2]) [%] | % of control at 20 µM (J774.A1 [3]) [%] | level, % of control at 20 µM (J774.A1 [4]) [%] |
| --- | --- | --- | --- | --- |
| C=C1CC[C@@H]2[C@](C)(CO)[C@H](O)CC[C@@]2(C)[C@@H]1CC(OC(=O)C/C=C/c1ccc2c(c1)OCO2)C1=CCOC1=O (stereo partly drawn) | 149 | 61 | 96 | 56.9 |
| C=C1CC[C@@H]2[C@](C)(CO)[C@H](O)CC[C@@]2(C)[C@@H]1C/C=C1/C(=O)OC[C@H]1O [ANDROGRAPHOLIDE] | 63.9 | 62.5 | 49.2 | 56 |
| C=C1CC[C@@H]2[C@](C)(CO)[C@H](O)CC[C@@]2(C)[C@@H]1CC(OC(=O)c1ccc(C)cc1)C1=CCOC1=O (stereo partly drawn) | 152 | 41.6 | 128 | 32.1 |
| CCCCCC(=O)O[C@@H]1CC[C@@]2(C)C3CC(C4=CCOC4=O)O[C@]3(C)CC[C@@H]2[C@]1(C)CO (stereo partly drawn) | 44.4 | 106 | 69.8 | 102 |
| C[C@]1(COC(=O)C(=O)CCC(=O)O)[C@H]2CC[C@@]3(C)OC(C4=CCOC4=O)CC3[C@]2(C)CC[C@H]1OC(=O)C(=O)CCC(=O)O (stereo partly drawn) | 81.7 | 129 | 55 | 114 |
| C[C@@]12COS(=O)O[C@@H]1CC[C@@]1(C)C3CC(C4=CCOC4=O)O[C@]3(C)CC[C@H]21 (stereo partly drawn) | 61.8 | 231 | 79.7 | 208 |
| C=C1CC[C@@H]2[C@](C)(CO)[C@H](O)CC[C@@]2(C)[C@@H]1CC(OC(=O)c1ccc([N+](=O)[O-])cc1)C1=CCOC1=O (stereo partly drawn) | 65.8 | 60 | 58.6 | 29.2 |
| C=C1CC[C@@H]2[C@](C)(CO)[C@H](O)CC[C@@]2(C)[C@@H]1CC(OC(=O)c1ccccc1)C1=CCOC1=O (stereo partly drawn) | 92.9 | 60.8 | 82 | 37.5 |
| CCC(=O)OC[C@@]1(C)[C@H]2CC[C@@]3(C)OC(C4=CCOC4=O)CC3[C@]2(C)CC[C@H]1OC(=O)CC (stereo partly drawn) | 82.8 | 115 | 60.5 | 110 |
| CC(=O)OC[C@@]1(C)[C@H]2CC[C@@]3(C)OC(C4=CCOC4=O)CC3[C@]2(C)CC[C@H]1OC(C)=O (stereo partly drawn) | 80 | 99.4 | 72.9 | 150 |
| C[C@]1(COC(=O)c2ccccc2)[C@H]2CC[C@@]3(C)OC(C4=CCOC4=O)CC3[C@]2(C)CC[C@H]1OC(=O)c1ccccc1 (stereo partly drawn) | 204 | 294 | 48.2 | 107 |
| C=C1CC[C@@H]2[C@](C)(CO)[C@H](O)CC[C@@]2(C)[C@@H]1CC(OC(=O)CC)C1=CCOC1=O (stereo partly drawn) | 70 | 96.9 | 82.6 | 74.7 |
| C=C1CC[C@@H]2[C@](C)(CO)[C@H](O)CC[C@@]2(C)[C@@H]1CC(OC(=O)c1cc2c(cc1[N+](=O)[O-])OCO2)C1=CCOC1=O (stereo partly drawn) | 115 | 94.4 | 70.1 | 44.6 |
| C=C1CC[C@@H]2[C@](C)(CO)[C@H](O)CC[C@@]2(C)[C@@H]1CC(OC(=O)CCCCC)C1=CCOC1=O (stereo partly drawn) | 79.6 | 76 | 82.9 | 46.6 |
| C=C1CC[C@@H]2[C@](C)(CO)[C@H](O)CC[C@@]2(C)[C@@H]1CC(OC(C)=O)C1=CCOC1=O (stereo partly drawn) | 107 | 62.7 | 95.1 | 44.7 |
| CCCCCC(=O)OC[C@@]1(C)[C@H]2CC[C@@]3(C)OC(C4=CCOC4=O)CC3[C@]2(C)CC[C@H]1OC(=O)CCCCC (stereo partly drawn) | 35.7 | 43.8 | 31.4 | 85.2 |
| C[C@]1(COC=O)[C@H]2CC[C@@]3(C)OC(C4=CCOC4=O)CC3[C@]2(C)CC[C@H]1OC(=O)c1ccccc1 (stereo partly drawn) | 28.5 | 36.5 | 27.7 | 85.7 |
